According to patent publication US5441983A, “Treatment of infection by enveloped virus with calix(N)arene compounds” (Genelabs Incorporated, priority 1992, dated 1995):
Converted amounts (≈) assume the structure as drawn.

Legend:
[1] = system: HSV-1; assay: Inactivation of purified HSV-1 by compound, plaque number after serial dilution; conditions: 10 μg/ml, duplicate
Procedure: In a third study, purified HSV-1 virus suspensions were incubated with KY-1 or the sodium salt thereof, or a control solution for 1 hour, then serially diluted to drug concentrations between 10^1 to 10^-4 μg/ml as described in Example 16. The "X" symbol in the table indicates plaques too numerous to count.
Purified HSV-1 was suspended in RPMI-1640 medium (Gibco Laboratories) containing 2% FCS, penicillin and streptomycin. […] The suspensions were incubated for 1 hour at 37° C., then diluted serially at 10 fold dilutions to final drug concentrations of 10, 10^0, 10^-1, 10^-2, 10^-3 and 10^-4 μg/ml drug concentrations The serially diluted particles were then added to Vero cells for two hours, as in Example 6, and the cells examined for plaques 48 hours later.

[2] = system: HIV-HXB; assay: Inhibition of syncytia formation, HIV-HXB (HTLV-IIIB); conditions: for EC100: Human immunodeficiency virus 1, 18 h, read-out: HIV-HXB ED100, complete inhibition of syncytia formation
[3] = system: HSV-1 or HSV-2; assay: Inhibition of HSV cytopathic effect (CPE) in Vero cells; conditions: 10-20 μg/ml
Procedure: In the method reported in Example 5, Vero cells were infected with HSV-1 or HSV-2 and allowed to grow in culture until cytopathic effects were clearly visible. In the absence of infection, the cells form an even monolayer of fibro-blastlike cells. With HSV infection, a cytopathic effect characterized by round cells in suspension is clearly evident after 24 hours, followed by clumping and lysis of infected cells after 24-72 hours.
In the drug inhibition study reported in Example 5, cells were exposed to HSV-1 or HSV-2 virus and, at the same time, to a selected aryl macrocyclic compound, at a final drug concentration of 10 μg/ml. Twenty-four hours later the cells were examined for cytopathic effect.
Vero cells were maintained in RPMI-1640 medium supplemented with 5% fetal calf serum, 100 Units of penicillin per ml and 100 μg of streptomycin per ml at 37° C. in a humidified incubator containing 7% CO2. The HSV strains HSV-1 (Kos-1) and HSV-2 (333) were used.
1×10^5 Vero cells were plated in each well of a 96 well microtitre plate in 0.2 ml RPMI-1640 medium containing 5% FCS and 0.1% methyl cellulose (15 cps). After overnight incubation, and cell doubling, the medium was aspirated and replaced with 100 .1 of the same medium containing 2% FCS, and 50.1 control or drug solution to a final drug concentration of 10 μg/ml and 50 μl virus, containing about 3 PFU/cell, i.e., 6 x 10^s PFU/well, of HSV-1 or HSV-2.
The cells were cultured for 24 hours at 37° C. at which time cytopathic effects are clearly visible. In the absence of viral infection, the cells form an even monolayer of fibroblast cells. With viral infection, the cells form a suspension of round cells, followed by cell clumping, whose appearance is easily distinguishable from normal fibroblast cells. If no detectable cytopathic effect was produced, the test was repeated with 10 μg/ml. A parallel set of cells without virus inoculation were done as a control for cytotoxicity to Vero cells.

[4] = system: Influenza A (Taiwan); assay: Inhibition of influenza A cytopathic effect (clumping) in MDCK cells; format: cell-based, Influenza A virus (A/Taiwan strain); conditions: Influenza A virus, 24 h, 50% reduction in percent clumped cells, read-out: ED50 Influenza A (Taiwan)
Procedure: With virus infection, a cytopathic effect characterized by cell clumping is observed. For each compound tested, drug concentrations of 0.1, 1, 10, 25, and 100 μg/ml were added to cultured cells at the time of virus infection, as detailed in Examples 9 and 11. […] The inhibition of clumping was plotted as a function of drug concentration, to determine the dose effective to produce a 50% reduction in the percent clumped cells, measured with respect to control (no drug treatment).
Assays to assess the antiviral activity of KY- and Y-compounds in tissue culture were performed in 96-well flat-bottom tissue culture plates (Falcon 307), using conditions similar to those used in the cytotoxicity assays described above. In these assays, compound was tested in quadruplicate by serially diluting the compound in 2% FCS-MEM using serial two-fold dilutions (0.05 ml/well). A 0.05 ml volume of the appropriate virus containing approximately 100 median tissue culture infectious doses (TCID50) was then added to all wells except those set aside as antiviral and tissue control wells. Next, approximately 3×10^3 HEp2 cells (0.1 ml) were added to each well. Control wells containing antiviral and no virus (antiviral control), containing virus but no antiviral (virus control), or containing medium without virus or antiviral (tissue control), were included in each test. The challenge virus was then back titrated. All assay plates were incubated at 35° C. for 5 to 7 days in a 5% CO2 incubator.
The anti-influenza A activity of KY compounds was evaluated as described in Example 9, except that MDCK cells (kidney cell line) was used for infection in vitro by influenza virus (strain A/Taiwan).

[5] = system: HSV-1; assay: Plaque reduction assay, HSV-1, Vero cells; format: cell-based, HSV-1 (Kos-1); conditions: plaque reduction, Vero cells; for IC50: Human alphaherpesvirus 1, Vero
Procedure: (§1) used in Table 3 were further tested for activity against HSV infection in
(§2) a plaque reduction assay, as detailed in Example 6. Here Vero cells, after
(§3) overnight incubation, were exposed to serial dilutions of KY compound,
(§4) from 0.625-10 μg/ml, and HSV-1 or HSV-2 virus for two hours. After
(§5) washing to remove drug and extracellular virus, the cells were further
(§6) incubated for 2 days, then stained and counted for plaque formation.
(§7) Percent inhibition was determined by dividing plaques produced by total
(§8) number of plaques in infected, untreated controls. From the concentration
(§9) effect curve of plaque inhibition (expressed as percent of control), the
(§10) concentration of compound required to produce 50% plaque reduction,
(§11) IC50, was determined. The IC50 values for infection by HSV-1 and
(§12) HSV-2 infection is given in the right-hand columns in Table 3. With

[6] = system: RSV; assay: Inhibition of RSV cytopathic effect in HEp2 cells; format: cell-based; conditions: human respiratory syncytial virus, HEp-2; HEp2 cells, cytopathic effect; read-out: ED50 RSV
[7] = system: HSV-2; assay: Plaque reduction assay, HSV-2, Vero cells; format: cell-based, HSV-2 (333); conditions: for IC50: Human alphaherpesvirus 2, Vero
Procedure: as §1, §2, §3, §4, §5, §6, §7, §8, §9, §10, §11, §12

[8] = system: HIV-RF-II; assay: Inhibition of syncytia formation, HIV-RF-II; conditions: for EC100: Human immunodeficiency virus 1, 18 h, read-out: HIV-RF-II ED100, complete inhibition of syncytia formation
Procedure: Briefly, cells chronically infected with HTLV-IIIB or RF-II HIV strains were incubated in the presence of serial dilutions of the selected KY compound, then further cocultured with indicator cells. The extent of syncytia formation was scored under phase microscopy.
Representative calix(n)arene compounds from Table 2 were tested for inhibition of cytopathic effects in cells infected with one of two HTLV-III strains, HTLV-IIIB and RF-II strains, as described in Example 12, and in the subsection above.
Human CD4^+ indicator cells (VB) and chronically infected H9 cells were maintained in RPMI-1640 medium supplemented with 5% fetal calf serum, 100 Units of penicillin per ml and 100 μg of streptomycin per ml at 37° C. in a humidified incubator containing 7% CO2.
For the fusion assay, serial dilutions between 1:2 and 1:2^8 of a selected KY compound, 1 mg/ml in PBS were made in a 96 well round bottom plate. The diluted KY compound was transferred to a 96 well flat-bottom plate. To each well was added 25 μg chronically infected H9 cells (at 2×10^6, cells/ml), or cells chronically infected with RF-II strain HIV, followed by incubation at 37° C. for 45 minutes. To each well was then added 25 μl VB cells (about 5×10^4 cells), and the cells and virus isolates were cocultured for 18 hours in a humid 5% CO2 atmosphere.

[9] = complete inhibition of syncytia formation

Row | Structure (SMILES) | EC100 [2] [µg/mL] | protection from CPE, in words [3] | IC50 [5] [µg/mL] | IC50 [7] [µg/mL] | EC100 [8] [µg/mL] | other results
1 | O=S(=O)(O)c1cc2cc(S(=O)(=O)O)c3c(O)c2c(O)c1Cc1c(S(=O)(=O)O)cc2cc(S(=O)(=O)O)c(c(O)c2c1O)Cc1c(S(=O)(=O)O)cc2cc(S(=O)(=O)O)c(c(O)c2c1O)Cc1c(S(=O)(=O)O)cc2cc(S(=O)(=O)O)c(c(O)c2c1O)C3 [KY 217] | – | – | – | – | – | Plaque number, dilution 1 ([1]; 0.3 pfu/cell): 2,8; Plaque number, dilution 10^1 ([1]; 0.3 pfu/cell): 3,3; Plaque number, dilution 1 ([1]; 3 pfu/cell): X,X; Plaque number, dilution 10^1 ([1]; 3 pfu/cell): X,X; Plaque number, dilution 10^2 ([1]; 3 pfu/cell): 6,0; Plaque number, dilution 10^3 ([1]; 3 pfu/cell): 5,0
2 | O=S(=O)(O)c1cc2cc(S(=O)(=O)O)c3c(O)c2c(O)c1C(C(O)CO)c1c(S(=O)(=O)O)cc2cc(S(=O)(=O)O)c(c(O)c2c1O)C(C(O)CO)c1c(S(=O)(=O)O)cc2cc(S(=O)(=O)O)c(c(O)c2c1O)C(C(O)CO)c1c(S(=O)(=O)O)cc2cc(S(=O)(=O)O)c(c(O)c2c1O)C3C(O)CO (stereo not shown) [KY-48] | 250 | low activity | – | – | – | –
3 | C=CC1c2c(S(=O)(=O)O)cc3cc(S(=O)(=O)O)c(c(O)c3c2O)C(C=C)c2c(S(=O)(=O)O)cc3cc(S(=O)(=O)O)c(c(O)c3c2O)C(C=C)c2c(S(=O)(=O)O)cc3cc(S(=O)(=O)O)c(c(O)c3c2O)C(C=C)c2c(S(=O)(=O)O)cc3cc(S(=O)(=O)O)c1c(O)c3c2O (stereo not shown) [KY-97] | 32 | – | > 10 | > 10 | – | EC50 [4]: 5 µg/mL (≈ 3.49 µM); EC50 [6]: 0.5 µg/mL (≈ 0.349 µM)
4 | CC(=O)C1c2c(S(=O)(=O)O)cc3cc(S(=O)(=O)O)c(c(O)c3c2O)C(C(C)=O)c2c(S(=O)(=O)O)cc3cc(S(=O)(=O)O)c(c(O)c3c2O)C(C(C)=O)c2c(S(=O)(=O)O)cc3cc(S(=O)(=O)O)c(c(O)c3c2O)C(C(C)=O)c2c(S(=O)(=O)O)cc3cc(S(=O)(=O)O)c1c(O)c3c2O (stereo not shown) [KY-110] | 63 | low activity | > 10 | > 10 | – | EC50 [4]: > 250 µg/mL; EC50 [6]: 4 µg/mL (≈ 2.67 µM)
5 | O=S(O)c1cc2cc(S(=O)O)c3c(O)c2c(O)c1Cc1c(S(=O)O)cc2cc(S(=O)O)c(c(O)c2c1O)Cc1c(S(=O)O)cc2cc(S(=O)O)c(c(O)c2c1O)Cc1c(S(=O)O)cc2cc(S(=O)O)c(c(O)c2c1O)C3 [KY-123] | 16 | – | 1.5 (≈ 1.25 µM) | 1.5 (≈ 1.25 µM) | 16 | EC50 [4]: 31.3 µg/mL (≈ 26.1 µM); EC50 [6]: 1 µg/mL (≈ 0.832 µM)
6 | CNS(=O)(=O)c1cc2cc(S(=O)(=O)NC)c3c(O)c2c(O)c1Cc1c(S(=O)(=O)NC)cc2cc(S(=O)(=O)NC)c(c(O)c2c1O)Cc1c(S(=O)(=O)NC)cc2cc(S(=O)(=O)NC)c(c(O)c2c1O)Cc1c(S(=O)(=O)NC)cc2cc(S(=O)(=O)NC)c(c(O)c2c1O)C3 [KY-147] | 250 | low activity | > 10 | > 10 | 250 | –
7 | CCNS(=O)(=O)c1cc2cc(S(=O)(=O)NCC)c3c(O)c2c(O)c1Cc1c(S(=O)(=O)NCC)cc2cc(S(=O)(=O)NCC)c(c(O)c2c1O)Cc1c(S(=O)(=O)NCC)cc2cc(S(=O)(=O)NCC)c(c(O)c2c1O)Cc1c(S(=O)(=O)NCC)cc2cc(S(=O)(=O)NCC)c(c(O)c2c1O)C3 [KY-148] | 250 | low activity | – | – | – | –
8 | CS(=O)(=O)c1cc2cc(S(C)(=O)=O)c3c(O)c2c(O)c1Cc1c(S(C)(=O)=O)cc2cc(S(C)(=O)=O)c(c(O)c2c1O)Cc1c(S(C)(=O)=O)cc2cc(S(C)(=O)=O)c(c(O)c2c1O)Cc1c(S(C)(=O)=O)cc2cc(S(C)(=O)=O)c(c(O)c2c1O)C3 [KY-158] | 500 | low activity | > 10 | > 10 | 7500 | –
9 | Oc1c2c(S)cc3cc(S)c(c(O)c13)Cc1c(S)cc3cc(S)c(c(O)c3c1O)Cc1c(S)cc3cc(S)c(c(O)c3c1O)Cc1c(S)cc3cc(S)c(c(O)c3c1O)C2 [KY-171] | 125 | – | 2.5 (≈ 2.64 µM) | 3 (≈ 3.17 µM) | 250 | –
10 | COS(=O)(=O)c1cc2cc(S(=O)(=O)OC)c3c(O)c2c(O)c1Cc1c(S(=O)(=O)OC)cc2cc(S(=O)(=O)OC)c(c(O)c2c1O)Cc1c(S(=O)(=O)OC)cc2cc(S(=O)(=O)OC)c(c(O)c2c1O)Cc1c(S(=O)(=O)OC)cc2cc(S(=O)(=O)OC)c(c(O)c2c1O)C3 [KY-175] | 63 | low activity | > 10 | > 10 | 250 | –
11 | O=S(=O)(O)c1c2c(O)c3c(O)c(c(S(=O)(=O)O)c(Br)c3c1Br)Cc1c(S(=O)(=O)O)c(Br)c3c(Br)c(S(=O)(=O)O)c(c(O)c3c1O)Cc1c(S(=O)(=O)O)c(Br)c3c(Br)c(S(=O)(=O)O)c(c(O)c3c1O)Cc1c(S(=O)(=O)O)c(Br)c3c(Br)c(S(=O)(=O)O)c(c(O)c3c1O)C2 [KY-194] | 63 | – | 1 (≈ 0.51 µM) | 1 (≈ 0.51 µM) | 125 | EC50 [4]: 7.9 µg/mL (≈ 4.03 µM); EC50 [6]: 0.5 µg/mL (≈ 0.255 µM)
12 | COc1c2c(S(=O)(=O)O)cc3cc(S(=O)(=O)O)c(c(OC)c13)Cc1c(S(=O)(=O)O)cc3cc(S(=O)(=O)O)c(c(OC)c3c1OC)Cc1c(S(=O)(=O)O)cc3cc(S(=O)(=O)O)c(c(OC)c3c1OC)Cc1c(S(=O)(=O)O)cc3cc(S(=O)(=O)O)c(c(OC)c3c1OC)C2 [KY-280] | – | – | – | – | – | HSV-1 IC50 [5]: 1.1 µg/mL; HIV-HXB ED100 [2, 9]: 16; HIV-RF-II ED100 [8, 9]: 32; HSV-2 IC50 [7]: 1 µg/mL
13 | O=S(=O)(NO)c1cc2cc(S(=O)(=O)NO)c3c(O)c2c(O)c1Cc1c(S(=O)(=O)NO)cc2cc(S(=O)(=O)NO)c(c(O)c2c1O)Cc1c(S(=O)(=O)NO)cc2cc(S(=O)(=O)NO)c(c(O)c2c1O)Cc1c(S(=O)(=O)NO)cc2cc(S(=O)(=O)NO)c(c(O)c2c1O)C3 [KY-359] | 32 | – | 5.75 (≈ 3.97 µM) | 4.2 (≈ 2.9 µM) | 63 | –
14 | COc1c2c(S(=O)(=O)O)cc3cc(S(=O)(=O)O)c(c(OC)c13)CN(C)Cc1c(S(=O)(=O)O)cc3cc(S(=O)(=O)O)c(c(OC)c3c1OC)CN(C)Cc1c(S(=O)(=O)O)cc3cc(S(=O)(=O)O)c(c(OC)c3c1OC)CN(C)Cc1c(S(=O)(=O)O)cc3cc(S(=O)(=O)O)c(c(OC)c3c1OC)CN(C)C2 [KY-395] | – | low activity | – | – | – | –
15 | O=S(=O)(O)c1cc2c(O)c(c1)Cc1cc(S(=O)(=O)O)cc(c1O)Cc1cc(S(=O)(=O)O)cc(c1O)Cc1cc(S(=O)(=O)O)cc(c1O)C2 [Y-49] | – | – | 5 (≈ 6.71 µM) | 10 (≈ 13.4 µM) | – | –
16 | O=C(O)C1c2c(S(=O)(=O)O)cc3cc(S(=O)(=O)O)c(c(O)c3c2O)C(C(=O)O)c2c(S(=O)(=O)O)cc3cc(S(=O)(=O)O)c(c(O)c3c2O)C(C(=O)O)c2c(S(=O)(=O)O)cc3cc(S(=O)(=O)O)c(c(O)c3c2O)C(C(=O)O)c2c(S(=O)(=O)O)cc3cc(S(=O)(=O)O)c1c(O)c3c2O (stereo not shown) [Y-66] | – | – | > 10 | > 10 | – | –
17 | O=S(=O)(O)c1cc2c(O)c(c1)Cc1cc(S(=O)(=O)O)cc(c1O)Cc1cc(S(=O)(=O)O)cc(c1O)Cc1cc(S(=O)(=O)O)cc(c1O)Cc1cc(S(=O)(=O)O)cc(c1O)Cc1cc(S(=O)(=O)O)cc(c1O)C2 [Y-77] | – | – | 8 (≈ 7.16 µM) | 11 (≈ 9.85 µM) | – | –
